Results on 14 compounds are retold here after patent publication US8163724B2, “Glucocorticosteroids, processes for their preparation, pharmaceutical compositions containing them and their use in therapy” (AstraZeneca AB, priority 2007, dated 2012).

For this assay, the target named is T1, recombinant human GR (Homo sapiens, UniProt P04150).
T1 construct: purchased Panvera/Invitrogen P2812 (kit P2893)
T1 sequence (P04150 1-777): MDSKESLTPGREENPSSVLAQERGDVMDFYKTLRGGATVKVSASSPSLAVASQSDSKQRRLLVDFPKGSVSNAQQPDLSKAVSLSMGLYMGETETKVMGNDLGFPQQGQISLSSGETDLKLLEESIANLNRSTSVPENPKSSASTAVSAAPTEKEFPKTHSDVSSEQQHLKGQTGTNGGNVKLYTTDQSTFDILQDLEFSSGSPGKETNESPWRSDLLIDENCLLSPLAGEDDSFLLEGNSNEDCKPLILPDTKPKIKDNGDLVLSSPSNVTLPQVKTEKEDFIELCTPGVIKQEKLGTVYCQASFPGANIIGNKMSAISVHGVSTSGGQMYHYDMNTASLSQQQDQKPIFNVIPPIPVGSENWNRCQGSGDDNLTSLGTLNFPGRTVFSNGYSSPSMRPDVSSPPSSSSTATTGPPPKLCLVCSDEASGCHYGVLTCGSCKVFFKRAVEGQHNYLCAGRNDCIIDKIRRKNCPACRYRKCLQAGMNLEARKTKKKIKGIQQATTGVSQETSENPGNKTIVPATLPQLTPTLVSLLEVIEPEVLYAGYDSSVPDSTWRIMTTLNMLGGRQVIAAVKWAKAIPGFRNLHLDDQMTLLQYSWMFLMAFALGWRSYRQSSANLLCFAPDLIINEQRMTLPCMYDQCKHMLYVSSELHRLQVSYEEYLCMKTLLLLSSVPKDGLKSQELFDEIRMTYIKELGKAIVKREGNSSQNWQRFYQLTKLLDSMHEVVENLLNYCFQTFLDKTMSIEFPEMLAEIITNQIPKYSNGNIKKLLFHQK
Briefly: Human Glucocorticoid Receptor (GR) Assay (fluorescence polarization, Panvera/Invitrogen kit). To be noted: fluorescence polarization; GS Red tracer; 2 hours at room temperature; 100% control 10 μM Dexamethasone; read-out: Inhibition of GR binding, IC50. It counts as binding. In a few lines: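 Fluorescence polarization competition with recombinant GR and GS Red fluorescent ligand plus stabilizing peptide and DTT in potassium phosphate/sodium molybdate/EDTA buffer with DMSO. Incubated 2 hours at room temperature in the dark; 0% control DMSO, 100% control 10 μM dexamethasone.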

Molecules are shown by their SMILES.

The IC50 is the point on the concentration scale where inhibition reaches its midpoint. Take `Cc1cc(C(=O)O[C@]2(C(=O)SCC#N)CC[C@H]3[C@@H]4CCC5=Cc6c(cnn6-c6ccc(F)cc6)C[C@]5(C)[C@H]4[C@@H](O)C[C@@]32C)no1` [Example 116, (1R,3aS,3bS,10aR,10bS,11S,12aS)-1-{[(Cyanomethyl)sulfanyl]carbonyl}-7-(4-fluorophenyl)-11-hydroxy-10a,12a-dimethyl-1,2,3,3a,3b,4,5,7,10,10a,10b,11,12,12a-tetradecahydrocyclopenta[5,6]naphtho[1,2-f]indazol-1-yl 5-methylisoxazole-3-carboxylate]: the IC50 was 6.9 nM.

Consider `Cn1cc(C(=O)O[C@]2(C(=O)SCCO)CC[C@H]3[C@@H]4CCC5=Cc6c(cnn6-c6ccc(F)cc6)C[C@]5(C)[C@H]4[C@@H](O)C[C@@]32C)nn1` [Example 49, (1R,3aS,3bS,10aR,10bS,11S,12aS)-7-(4-Fluorophenyl)-11-hydroxy-1-{[(2-hydroxy-ethyl)thio]carbonyl}-10a,12a-dimethyl-1,2,3,3a,3b,4,5,7,10,10a,10b,11,12,12a-tetradecahydrocyclopenta[5,6]naphtho[1,2-f]indazol-1-yl 1-methyl-1H-1,2,3-triazole-4-carboxylate], for which the IC50 amounted to 3.5 nM.

For `COCSC(=O)[C@@]1(OC(=O)C2CC2)CC[C@H]2[C@@H]3CCC4=Cc5c(cnn5-c5ccc(F)nc5)C[C@]4(C)[C@H]3[C@@H](O)C[C@@]21C` [Example 154, (1R,3aS,3bS,10aR,10bS,11S,12aS)-7-(6-Fluoropyridin-3-yl)-11-hydroxy-1-{[(methoxymethyl)sulfanyl]carbonyl}-10a,12a-dimethyl-1,2,3,3a,3b,4,5,7,10,10a,10b,11,12,12a-tetradecahydrocyclopenta[5,6]naphtho[1,2-f]indazol-1-yl cyclopropanecarboxylate], the IC50 worked out at 5.9 nM.

Consider `COCCCSC(=O)[C@@]1(OC(=O)c2ccco2)CC[C@H]2[C@@H]3CCC4=Cc5c(cnn5-c5ccc(F)cc5)C[C@]4(C)[C@H]3[C@@H](O)C[C@@]21C` [Example 85, (1R,3aS,3bS,10aR,10bS,11S,12aS)-7-(4-Fluorophenyl)-11-hydroxy-{[(3-methoxypropyl)sulfanyl]carbonyl}-10a,12a-dimethyl-1,2,3,3a,3b,4,5,7,10,10a,10b,11,12,12a-tetradecahydrocyclopenta[5,6]naphtho[1,2-f]indazol-1-yl furan-2-carboxylate], for which the IC50 is 6.3 nM.

For the compound `COC1(C(=O)O[C@]2(C(=O)SCC#N)CC[C@H]3[C@@H]4CCC5=Cc6c(cnn6-c6ccc(F)cc6)C[C@]5(C)[C@H]4[C@@H](O)C[C@@]32C)CC1` [Example 135, (1R,3aS,3bS,10aR,10bS,11S,12aS)-1-{[(Cyanomethyl)sulfanyl]carbonyl}-7-(4-fluorophenyl)-11-hydroxy-10a,12a-dimethyl-1,2,3,3a,3b,4,5,7,10,10a,10b,11,12,12a-tetradecahydrocyclopenta[5,6]naphtho[1,2-f]indazol-1-yl 1-methoxycyclopropanecarboxylate], the half-inhibitory concentration (IC50) was 7.6 nM.

`C[C@]12Cc3cnn(-c4cc(F)cc(F)c4)c3C=C1CC[C@@H]1[C@@H]2[C@@H](O)C[C@@]2(C)[C@H]1CC[C@]2(OC(=O)c1ccco1)C(=O)SCC#N` [Example 102, (1R,3aS,3bS,10aR,10bS,11S,12aS)-1-{[(Cyanomethyl)thio]carbonyl}-7-(3,5-difluorophenyl)-11-hydroxy-10a,12a-dimethyl-1,2,3,3a,3b,4,5,7,10,10a,10b,11,12,12a-tetradecahydrocyclopenta[5,6]naphtho[1,2-f]indazol-1-yl furan-2-carboxylate]: the IC50 amounted to 8.2 nM.

In the case of `COCC(=O)O[C@]1(C(=O)SCC#N)CC[C@H]2[C@@H]3CCC4=Cc5c(cnn5-c5ccc(F)cc5)C[C@]4(C)[C@@]3(F)[C@@H](O)C[C@@]21C` [Example 197, (1R,3aS,3bS,10aS,10bR,11S,12aS)-1-{[(Cyanomethyl)sulfanyl]carbonyl}-10b-fluoro-7-(4-fluorophenyl)-11-hydroxy-10a,12a-dimethyl-1,2,3,3a,3b,4,5,7,10,10a,10b,11,12,12a-tetradecahydrocyclopenta[5,6]naphtho[1,2-f]indazol-1-yl methoxyacetate], the IC50 was found to be 3.3 nM.

As for `C[C@]12Cc3cnn(-c4ccc(F)nc4)c3C=C1CC[C@@H]1[C@@H]2[C@@H](O)C[C@@]2(C)[C@H]1CC[C@]2(OC(=O)c1cocn1)C(=O)SCCO` [Example 162, (1R,3aS,3bS,10aR,10bS,11S,12aS)-7-(6-Fluoropyridin-3-yl)-11-hydroxy-1-{[(2-hydroxyethyl)sulfanyl]carbonyl}-10a,12a-dimethyl-1,2,3,3a,3b,4,5,7,10,10a,10b,11,12,12a-tetradecahydrocyclopenta[5,6]naphtho[1,2-f]indazol-1-yl 1,3-oxazole-4-carboxylate], the IC50 came to 1.8 nM.

For `Cc1occc1C(=O)O[C@]1(C(=O)SCC#N)CC[C@H]2[C@@H]3CCC4=Cc5c(cnn5-c5ccc(F)cc5)C[C@]4(C)[C@H]3[C@@H](O)C[C@@]21C` [Example 53, (1R,3aS,3bS,10aR,10bS,11S,12aS)-1-{[(Cyanomethyl)sulfanyl]carbonyl}-7-(4-fluoro-phenyl)-11-hydroxy-10a,12a-dimethyl-1,2,3,3a,3b,4,5,7,10,10a,10b,11,12,12a-tetradecahydrocyclopenta[5,6]naphtho[1,2-f]indazol-1-yl 2-methylfuran-3-carboxylate], the IC50 amounted to 9 nM.

Regarding `COC(=O)c1cccc(-n2ncc3c2C=C2CC[C@@H]4[C@H]([C@@H](O)C[C@@]5(C)[C@H]4CC[C@]5(OC(=O)c4ccco4)C(=O)SCF)[C@@]2(C)C3)c1` [Example 108, (1R,3aS,3bS,10aR,10bS,11S,12aS)-1-{[(Fluoromethyl)sulfanyl]carbonyl}-11-hydroxy-7-[3-(methoxycarbonyl)phenyl]-10a,12a-dimethyl-1,2,3,3a,3b,4,5,7,10,10a,10b,11,12,12a-tetradecahydrocyclopenta[5,6]naphtho[1,2-f]indazol-1-yl furan-2-carboxylate], the IC50 was determined as 6.6 nM.

For `CSCSC(=O)[C@@]1(OC(=O)c2ccco2)CC[C@H]2[C@@H]3CCC4=Cc5c(cnn5-c5ccc(F)cc5)C[C@]4(C)[C@H]3[C@@H](O)C[C@@]21C` [Example 82, (1R,3aS,3bS,10aR,10bS,11S,12aS)-7-(4-Fluorophenyl)-11-hydroxy-10a,12a-dimethyl-1-({[(methylsulfanyl)methyl]sulfanyl}carbonyl)-1,2,3,3a,3b,4,5,7,10,10a,10b,11,12,12a-tetradecahydrocyclopenta[5,6]naphtho[1,2-f]indazol-1-yl furan-2-carboxylate], the half-maximal inhibitory concentration (IC50) amounted to 8.5 nM.

Turning to `Cc1cc(-n2ncc3c2C=C2CC[C@@H]4[C@H]([C@@H](O)C[C@@]5(C)[C@H]4CC[C@]5(OC(=O)C4CC4)C(=O)OCC#N)[C@@]2(C)C3)ccn1` [Example 142, Cyanomethyl(1R,3aS,3bS,10aR,10bS,11S,12aS)-1-[(cyclopropylcarbonyl)oxy]-11-hydroxy-10a,12a-dimethyl-7-(2-methylpyridin-4-yl)-1,2,3,3a,3b,4,5,7,10,10a,10b,11,12,12a-tetradecahydrocyclopenta[5,6]naphtho[1,2-]indazole-1-carboxylate], the IC50 turned out to be 1.6 nM.

Consider `C[C@]12Cc3cnn(-c4ccc(F)nc4)c3C=C1CC[C@H]1[C@@H]3CC[C@](OC(=O)c4cocn4)(C(=O)SCC#N)[C@@]3(C)C[C@H](O)[C@@]12F` [Example 209, (1R,3aS,3bS,10aS,1.0bR,11S,12aS)-1-{[(Cyanomethyl)sulfanyl]carbonyl}-10b-fluoro-7-(6-fluoropyridin-3-yl)-11-hydroxy-10a,12a-dimethyl-1,2,3,3a,3b,4,5,7,10,10a,10b,11,12,12a-tetradecahydrocyclopenta[5,6]naphtho[1,2-f]indazol-1-yl 1,3-oxazole-4-carboxylate], for which the IC50 worked out at 3.6 nM.

Turning to `C[C@]12Cc3cnn(-c4ccc(F)cc4)c3C=C1CC[C@@H]1[C@@H]2[C@@H](O)C[C@@]2(C)[C@H]1CC[C@]2(OC(=O)C1CCOCC1)C(=O)SCC#N` [Example 126, (1R,3aS,3bS,10aR,10bS,11S,12aS)-1-{[(Cyanomethyl)sulfanyl]carbonyl}-7-(4-fluorophenyl)-11-hydroxy-10a,12a-dimethyl-1,2,3,3a,3b,4,5,7,10,10a,10b,11,12,12a-tetradecahydrocyclopenta[5,6]naphtho[1,2-f]indazol-1-yl tetrahydro-2H-pyran-4-carboxylate], the half-maximal inhibitory concentration (IC50) is 2.7 nM.
